Measured values published in patent publication US20180074053A1 (priority 2016, published 2018).
Where two headings read alike, the source gives them in different places. Non-standard residues stand in square brackets, D forms with d. No end group written: not given here.

What was measured:
NOP = NOP (Homo sapiens, UniProt P41146); assay: cell-based
Experimental: (§1) The platform uses ChemiScreen GPCR stable cell lines that are used for real-time calcium flux assays to rapidly, screen a spectrum of GPCRs. […] Percentage activation values were determined upon initial addition of compound(s). Percentage activation and inhibition values were determined for each GPCR relative to the reference compounds.
(§2) Assays were performed according to the manufacturer's instructions. […] The assay plate was read by the FLIPR TETRA® (Molecular Devices, Sunnyvale, Calif.). All assay plate data were subjected to appropriate baseline corrections and the maximum fluorescence values were processed to calculate percentage activation (relative to ECmax reference agonist and vehicle control values).

NK1 = NK1 (Homo sapiens, UniProt P25103); assay: cell-based
Experimental: as §1, §2

GPCR40 = GPCR40 (Homo sapiens, UniProt O14842); assay: cell-based
Experimental: as §1, §2

MRGX2 = MRGX2 (Homo sapiens, UniProt Q96LB1); assay: cell-based
Experimental: as §1, §2

NK2 = NK2 (Homo sapiens, UniProt P21452); assay: cell-based
Experimental: as §1, §2

NMUR2 = NMUR2 (Homo sapiens, UniProt Q9GZQ4); assay: cell-based
Experimental: as §1, §2

MCHR1 = MCHR1 (Homo sapiens, UniProt Q99705); assay: cell-based
Experimental: as §1, §2

NMUR1 = NMUR1 (Homo sapiens, UniProt Q9HB89); assay: cell-based
Experimental: as §1, §2

MRGD = MRGD (Homo sapiens, UniProt Q8TDS7); assay: cell-based
Experimental: as §1, §2

[1] = target: MAS-related G-protein-coupled receptor member D (MRGD) (human, UniProt Q8TDS7 1-321); assay: cell-based or functional assay
[2] = read-out: percent activation compared to standards, DT-110 @ 1.25 mM, Avg.
[3] = read-out: percent activation compared to standards, DT-110 @ 1.25 mM, n1
[4] = read-out: percent activation compared to standards, DT-110 @ 1.25 mM, n2
[5] = read-out: percent activation compared to standards, DT-110 @ 12.5 mM, Avg.
[6] = read-out: percent activation compared to standards, DT-110 @ 12.5 mM, n1
[7] = read-out: percent activation compared to standards, DT-110 @ 12.5 mM, n2

Sequence of GPCR40 (O14842 whole entry): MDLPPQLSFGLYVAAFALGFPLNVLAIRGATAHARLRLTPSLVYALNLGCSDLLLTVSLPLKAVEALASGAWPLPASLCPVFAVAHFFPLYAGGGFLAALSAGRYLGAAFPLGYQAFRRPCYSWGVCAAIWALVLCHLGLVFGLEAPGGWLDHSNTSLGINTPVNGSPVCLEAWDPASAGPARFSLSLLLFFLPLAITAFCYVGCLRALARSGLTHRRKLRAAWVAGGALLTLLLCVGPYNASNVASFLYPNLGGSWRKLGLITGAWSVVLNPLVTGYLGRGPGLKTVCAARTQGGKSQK
Sequence of NK1 (P25103 whole entry): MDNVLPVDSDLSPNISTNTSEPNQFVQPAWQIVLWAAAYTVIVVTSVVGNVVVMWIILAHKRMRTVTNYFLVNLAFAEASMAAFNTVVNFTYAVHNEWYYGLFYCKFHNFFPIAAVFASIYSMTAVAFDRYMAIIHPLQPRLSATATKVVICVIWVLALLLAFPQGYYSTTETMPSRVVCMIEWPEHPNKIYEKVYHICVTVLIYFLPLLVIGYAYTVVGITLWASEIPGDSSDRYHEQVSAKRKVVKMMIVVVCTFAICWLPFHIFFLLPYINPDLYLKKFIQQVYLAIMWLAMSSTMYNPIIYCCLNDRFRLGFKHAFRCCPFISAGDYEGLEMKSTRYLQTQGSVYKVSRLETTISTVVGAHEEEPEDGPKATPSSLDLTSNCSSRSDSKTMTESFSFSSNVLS
Sequence of MCHR1 (Q99705 whole entry): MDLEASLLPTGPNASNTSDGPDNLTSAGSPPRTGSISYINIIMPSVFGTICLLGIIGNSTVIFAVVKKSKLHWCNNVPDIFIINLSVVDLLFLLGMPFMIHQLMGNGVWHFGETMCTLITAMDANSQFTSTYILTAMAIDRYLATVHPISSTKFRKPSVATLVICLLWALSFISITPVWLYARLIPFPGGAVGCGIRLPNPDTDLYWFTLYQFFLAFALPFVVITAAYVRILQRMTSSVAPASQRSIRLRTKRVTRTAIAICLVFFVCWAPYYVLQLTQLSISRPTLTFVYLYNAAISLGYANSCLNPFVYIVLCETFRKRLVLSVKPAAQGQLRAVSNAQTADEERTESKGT
Sequence of MAS-related G-protein-coupled receptor member D (MRGD) (Q8TDS7 whole entry): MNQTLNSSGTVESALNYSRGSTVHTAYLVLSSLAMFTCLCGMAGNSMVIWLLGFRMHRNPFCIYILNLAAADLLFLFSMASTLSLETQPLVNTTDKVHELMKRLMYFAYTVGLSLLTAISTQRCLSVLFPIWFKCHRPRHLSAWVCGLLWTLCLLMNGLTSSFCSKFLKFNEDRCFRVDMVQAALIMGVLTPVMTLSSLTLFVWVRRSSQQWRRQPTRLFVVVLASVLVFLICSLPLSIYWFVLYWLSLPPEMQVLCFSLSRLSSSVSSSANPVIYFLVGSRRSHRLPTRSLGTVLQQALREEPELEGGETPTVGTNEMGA
Sequence of MRGD (Q8TDS7 whole entry): as above
Sequence of MRGX2 (Q96LB1 whole entry): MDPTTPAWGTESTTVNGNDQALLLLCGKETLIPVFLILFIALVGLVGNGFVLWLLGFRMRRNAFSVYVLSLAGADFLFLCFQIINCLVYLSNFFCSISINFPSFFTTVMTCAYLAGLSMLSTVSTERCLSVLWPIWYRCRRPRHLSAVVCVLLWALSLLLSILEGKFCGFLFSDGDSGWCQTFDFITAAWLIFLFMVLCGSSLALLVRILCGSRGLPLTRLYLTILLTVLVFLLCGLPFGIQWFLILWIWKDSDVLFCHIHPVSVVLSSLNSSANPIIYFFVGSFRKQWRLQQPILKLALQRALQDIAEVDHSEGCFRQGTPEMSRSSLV
Sequence of NOP (P41146 whole entry): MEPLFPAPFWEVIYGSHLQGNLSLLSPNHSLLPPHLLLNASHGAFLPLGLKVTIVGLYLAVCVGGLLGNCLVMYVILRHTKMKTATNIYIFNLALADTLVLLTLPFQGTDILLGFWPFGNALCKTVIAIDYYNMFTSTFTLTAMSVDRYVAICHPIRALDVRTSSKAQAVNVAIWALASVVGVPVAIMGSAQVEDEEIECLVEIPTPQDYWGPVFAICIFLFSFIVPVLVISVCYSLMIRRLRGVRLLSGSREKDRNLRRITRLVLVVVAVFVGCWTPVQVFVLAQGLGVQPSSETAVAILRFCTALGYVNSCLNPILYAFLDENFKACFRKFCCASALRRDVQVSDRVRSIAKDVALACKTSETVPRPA
Sequence of NMUR2 (Q9GZQ4 whole entry): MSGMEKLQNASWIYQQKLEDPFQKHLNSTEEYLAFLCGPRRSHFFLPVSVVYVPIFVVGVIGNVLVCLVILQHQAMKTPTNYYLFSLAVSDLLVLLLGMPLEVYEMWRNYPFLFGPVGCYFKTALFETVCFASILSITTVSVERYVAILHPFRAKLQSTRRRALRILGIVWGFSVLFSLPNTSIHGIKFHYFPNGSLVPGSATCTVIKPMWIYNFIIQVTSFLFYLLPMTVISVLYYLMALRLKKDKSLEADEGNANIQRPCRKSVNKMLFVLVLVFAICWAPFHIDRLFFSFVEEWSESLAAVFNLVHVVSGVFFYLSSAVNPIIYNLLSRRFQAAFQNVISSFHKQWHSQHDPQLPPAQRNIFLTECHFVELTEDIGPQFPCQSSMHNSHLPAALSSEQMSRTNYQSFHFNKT
Sequence of NMUR1 (Q9HB89 whole entry): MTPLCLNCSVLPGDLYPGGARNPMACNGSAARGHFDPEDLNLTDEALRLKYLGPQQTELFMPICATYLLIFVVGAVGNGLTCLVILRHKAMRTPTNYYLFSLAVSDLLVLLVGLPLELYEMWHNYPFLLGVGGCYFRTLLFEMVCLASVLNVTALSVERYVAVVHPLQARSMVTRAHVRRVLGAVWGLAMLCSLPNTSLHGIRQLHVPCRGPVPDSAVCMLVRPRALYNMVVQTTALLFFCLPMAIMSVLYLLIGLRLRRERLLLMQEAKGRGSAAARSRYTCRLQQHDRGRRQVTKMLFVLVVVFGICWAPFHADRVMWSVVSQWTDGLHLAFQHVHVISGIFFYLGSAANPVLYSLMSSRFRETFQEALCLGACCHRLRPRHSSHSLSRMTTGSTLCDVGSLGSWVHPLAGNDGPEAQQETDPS
Sequence of NK2 (P21452 whole entry): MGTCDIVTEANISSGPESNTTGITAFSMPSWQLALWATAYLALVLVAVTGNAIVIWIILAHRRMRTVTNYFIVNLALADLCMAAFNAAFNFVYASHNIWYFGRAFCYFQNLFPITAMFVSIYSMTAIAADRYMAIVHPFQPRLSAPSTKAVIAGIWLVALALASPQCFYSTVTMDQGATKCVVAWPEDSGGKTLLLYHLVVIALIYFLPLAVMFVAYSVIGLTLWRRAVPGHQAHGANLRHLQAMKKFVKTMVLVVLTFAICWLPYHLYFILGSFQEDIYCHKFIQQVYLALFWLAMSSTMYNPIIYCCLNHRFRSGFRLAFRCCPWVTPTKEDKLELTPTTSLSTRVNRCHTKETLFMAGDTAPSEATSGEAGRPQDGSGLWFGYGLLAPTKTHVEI

CC(C)C[C@@H](NC(=O)CNC(=O)CN)C(=O)O
activation at 1250 µM (NOP; [2]): -0.1%
activation at 1250 µM (NOP; [3]): -7.8%
activation at 1250 µM (NOP; [4]): 7.6%
activation at 12500 µM (NOP; [5]): -2.3%
activation at 12500 µM (NOP; [6]): 3.4%
activation at 12500 µM (NOP; [7]): -8%
activation at 1250 µM (NK1; [2]): -0.9%
activation at 1250 µM (NK1; [3]): -1%
activation at 1250 µM (NK1; [4]): -0.9%
activation at 12500 µM (NK1; [5]): -1.1%
activation at 12500 µM (NK1; [6]): -1%
activation at 12500 µM (NK1; [7]): -1.1%
activation at 1250 µM (GPCR40; [2]): -9.5%
activation at 1250 µM (GPCR40; [3]): -9.3%
activation at 1250 µM (GPCR40; [4]): -9.6%
activation at 12500 µM (GPCR40; [5]): 50.2%
activation at 12500 µM (GPCR40; [6]): 55.9%
activation at 12500 µM (GPCR40; [7]): 44.5%
activation at 1250 µM (MRGX2; [2]): -0.2%
activation at 1250 µM (MRGX2; [3]): 0%
activation at 1250 µM (MRGX2; [4]): -0.4%
activation at 12500 µM (MRGX2; [5]): 0%
activation at 12500 µM (MRGX2; [6]): 0.4%
activation at 12500 µM (MRGX2; [7]): -0.4%
activation at 1250 µM (NK2; [2]): -9.5%
activation at 1250 µM (NK2; [3]): -9.4%
activation at 1250 µM (NK2; [4]): -9.6%
activation at 12500 µM (NK2; [5]): -9.6%
activation at 12500 µM (NK2; [6]): -9.5%
activation at 12500 µM (NK2; [7]): -9.7%
activation at 1250 µM (NMUR2; [2]): 2.4%
activation at 1250 µM (NMUR2; [3]): 0.9%
activation at 1250 µM (NMUR2; [4]): 3.9%
activation at 12500 µM (NMUR2; [5]): -0.9%
activation at 12500 µM (NMUR2; [6]): 0.4%
activation at 12500 µM (NMUR2; [7]): -2.2%
activation at 1250 µM (MCHR1; [2]): 0.4%
activation at 1250 µM (MCHR1; [3]): 0.2%
activation at 1250 µM (MCHR1; [4]): 0.7%
activation at 12500 µM (MCHR1; [5]): -0.1%
activation at 12500 µM (MCHR1; [6]): -0.5%
activation at 12500 µM (MCHR1; [7]): 0.3%
activation at 1250 µM (NMUR1; [2]): 0.5%
activation at 1250 µM (NMUR1; [3]): 1.3%
activation at 1250 µM (NMUR1; [4]): -0.4%
activation at 12500 µM (NMUR1; [5]): -0.1%
activation at 12500 µM (NMUR1; [6]): -0.7%
activation at 12500 µM (NMUR1; [7]): 0.5%
activation at 1250 µM (MRGD; [2]): 69.2%
activation at 1250 µM (MRGD; [3]): 76.5%
activation at 1250 µM (MRGD; [4]): 62%
activation at 12500 µM (MRGD; [5]): 64.5%
activation at 12500 µM (MRGD; [6]): 60.7%
activation at 12500 µM (MRGD; [7]): 68.3%

Gly-Gly-[dL] [DT-110, tripeptide glycine-glycine-D-leucine (GGdL)]
EC50, calcium mobilization in MRGD cells (FIG. 12) [1]: ~360 µM
EC50, calcium mobilization in MRGD over-expressing cells (FIG. 5) [1]: 76 µM
EC50, calcium mobilization in the MRGD cell line (FIG. 8) [1]: 161 µM
